The experiment deals with T1, hDGAT1 (Homo sapiens, UniProt O75907).
T1 sequence (O75907 1-488): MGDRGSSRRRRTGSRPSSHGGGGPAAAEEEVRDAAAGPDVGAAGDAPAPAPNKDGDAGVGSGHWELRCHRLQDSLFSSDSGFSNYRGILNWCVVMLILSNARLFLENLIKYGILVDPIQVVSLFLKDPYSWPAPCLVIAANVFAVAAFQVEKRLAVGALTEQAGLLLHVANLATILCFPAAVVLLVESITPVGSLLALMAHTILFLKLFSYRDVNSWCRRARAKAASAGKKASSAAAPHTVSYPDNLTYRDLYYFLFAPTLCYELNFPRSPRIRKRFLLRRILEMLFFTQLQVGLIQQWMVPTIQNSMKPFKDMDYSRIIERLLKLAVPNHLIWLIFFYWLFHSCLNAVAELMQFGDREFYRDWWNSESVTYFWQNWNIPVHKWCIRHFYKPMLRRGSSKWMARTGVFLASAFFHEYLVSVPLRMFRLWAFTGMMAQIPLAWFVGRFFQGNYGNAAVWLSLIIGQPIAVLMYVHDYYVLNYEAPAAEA
Description: In-vitro DGAT1 assay (14C oleoyl CoA, hDGAT1 microsomes from Sf9 cells). The conditions noted are these: for inhibition at 1 µM: read-out: % Inhibition of hDGAT1.

Molecules are shown by their SMILES.

`CC(C)[C@@H](C(=O)O)N1Cc2cc(-c3ccc(NC(=O)Nc4ccc(C#N)cc4)cc3)ccc2C1=O` [Example 253, (S)-2-(5-(4-(3-(4-Cyanophenyl)ureido)phenyl)-1-oxoisoindolin-2-yl)-3-methylbutanoic acid]: the inhibition at 1 µM was above 50%.

As for `CC(C)[C@@H](C(=O)O)N1Cc2cc(-c3ccc(NC(=O)Nc4cccc(C#N)c4)cc3)ccc2C1=O` [Example 255, (S)-2-(5-(4-(3-(3-Cyanophenyl)ureido)phenyl)-1-oxoisoindolin-2-yl)-3-methylbutanoic acid], the inhibition at 1 µM was above 50%.

As to `CC(C)[C@@H](C(=O)O)N1Cc2cc(-c3ccc(NC(=S)Nc4cccc(F)c4)cc3)ccc2C1=O` [Example 259, (S)-2-(5-(4-(3-(3-Fluorophenyl)thioureido)phenyl)-1-oxoisoindolin-2-yl)-3-methyl butanoic acid], the inhibition at 1 µM was 10 to 50%. Consider `COc1ccc(NC(=S)Nc2ccc(-c3ccc4c(c3)CN([C@H](C(=O)O)C(C)C)C4=O)cc2)cc1` [Example 261, (S)-2-(5-(4-(3-(4-Methoxyphenyl)thioureido)phenyl)-1-oxoisoindolin-2-yl)-3-methylbutanoic acid], for which the inhibition at 1 µM lay in the range of 10 to 50%. In the case of `COc1cccc(NC(=S)Nc2ccc(-c3ccc4c(c3)CN([C@H](C(=O)O)C(C)C)C4=O)cc2)c1` [Example 263, (S)-2-(5-(4-(3-(3-Methoxyphenyl)thioureido)phenyl)-1-oxoisoindolin-2-yl)-3-methyl butanoic acid], the inhibition at 1 µM lay in the range of 10 to 50%.

On to `CC(C)[C@@H](C(=O)O)N1Cc2cc(-c3ccc(NC(=S)Nc4ccc(Cl)cc4)cc3)ccc2C1=O` [Example 265, (S)-2-(5-(4-(3-(4-Chlorophenyl)thioureido)phenyl)-1-oxoisoindolin-2-yl)-3-methylbutanoic acid], for which the inhibition at 1 µM is 10 to 50%. Regarding `CC(C)[C@@H](C(=O)O)N1Cc2cc(-c3ccc(NC(=S)Nc4cccc(Cl)c4)cc3)ccc2C1=O` [Example 267, (S)-2-(5-(4-(3-(3-Chlorophenyl)thioureido)phenyl)-1-oxoisoindolin-2-yl)-3-methylbutanoic acid], the inhibition at 1 µM lay within 10 to 50%. With `CC(C)[C@@H](C(=O)O)N1Cc2cc(-c3ccc(NC(=S)Nc4ccc(C#N)cc4)cc3)ccc2C1=O` [Example 269, (S)-2-(5-(4-(3-(4-Cyanophenyl)thioureido)phenyl)-1-oxoisoindolin-2-1)-3-methyl butanoic acid], the “% Inhibition of hDGAT1” value (at 1 μM) is listed as “+ (10-50% Inhibition)”. For `CC(C)[C@@H](C(=O)O)N1Cc2cc(-c3ccc(NC(=S)Nc4ccccc4C(F)(F)F)cc3)ccc2C1=O` [Example 271, (S)-3-Methyl-2-(1-oxo-5-(4-(3-(2-(trifluoromethyl)phenyl)thioureido)phenyl)isoindolin-2-yl)butanoic acid], the inhibition at 1 µM was in the range of 10 to 50%.

For the compound `Cc1ccc(NC(=S)Nc2ccc(-c3ccc4c(c3)CN([C@H](C(=O)O)C(C)C)C4=O)cc2)cc1` [Example 275, (S)-3-Methyl-2-(1-oxo-5-(4-(3-p-tolylthioureido)phenyl)isoindolin-2-yl)butanoic acid], the inhibition at 1 µM lay in the range of 10 to 50%. As for `COc1ccccc1NC(=S)Nc1ccc(-c2ccc3c(c2)CN([C@H](C(=O)O)C(C)C)C3=O)cc1` [Example 281, (S)-2-(5-(4-(3-(2-Methoxyphenyl)thioureido)phenyl)-1-oxoisoindolin-2-yl)-3-methylbutanoic acid], the inhibition at 1 µM was above 50%. Still for that read-out and setting: to `CC(C)[C@@H](C(=O)O)N1Cc2cc(-c3ccc(NC(=S)Nc4cccc(C(F)(F)F)c4)cc3)ccc2C1=O` [Example 283, (S)-3-Methyl-2-(1-oxo-5-(4-(3-(3-(trifluoromethyl)phenyl)thioureido)phenyl)isoindolin-2-yl)butanoic acid] belongs above 50%; to `CC(C)[C@@H](C(=O)O)N1Cc2cc(-c3ccc(NS(=O)(=O)c4ccc(F)c(F)c4)cc3)ccc2C1=O` [Example 289, (S)-2-(5-(4-(3,4-Difluorophenylsulfonamido)phenyl)-1-oxoisoindolin-2-yl)-3-methylbutanoic acid], 10 to 50%; to `CC(C)[C@@H](C(=O)O)N1Cc2cc(-c3ccc(NS(=O)(=O)c4ccc(F)cc4F)cc3)ccc2C1=O` [Example 291, (S)-2-(5-(4-(2,4-Difluorophenylsulfonamido)phenyl)-1-oxoisoindolin-2-yl)-3-methylbutanoic acid], 10 to 50%. As for `COc1ccc(S(=O)(=O)Nc2ccc(-c3ccc4c(c3)CN([C@H](C(=O)O)C(C)C)C4=O)cc2)cc1OC` [Example 293, (S)-2-(5-(4-(3,4-Dimethoxyphenylsulfonamido)phenyl)-1-oxoisoindolin-2-yl)-3-methylbutanoic acid], the inhibition at 1 µM fell in the range of 10 to 50%. On to `CC(C)[C@@H](C(=O)O)N1Cc2cc(-c3ccc(NS(=O)(=O)c4cccc(Cl)c4)cc3)ccc2C1=O` [Example 295, (S)-2-(5-(4-(3-Chlorophenylsulfonamido)phenyl)-1-oxoisoindolin-2-yl)-3-methyl butanoic acid], for which the inhibition at 1 µM is 10 to 50%. On the same count and under the same terms, under `COc1ccc(S(=O)(=O)Nc2ccc(-c3ccc4c(c3)CN([C@H](C(=O)O)C(C)C)C4=O)cc2)cc1` [Example 297, (S)-2-(5-(4-(4-Methoxyphenylsulfonamido)phenyl)-1-oxoisoindolin-2-yl)-3-methylbutanoic acid] stands 10 to 50%; under `CC(C)[C@@H](C(=O)O)N1Cc2cc(-c3ccc(NS(=O)(=O)c4ccc(C(F)(F)F)cc4)cc3)ccc2C1=O` [Example 299, (S)-3-Methyl-2-(1-oxo-5-(4-(4-(trifluoromethyl)phenylsulfonamido)phenyl)isoindolin-2-yl)butanoic acid], 10 to 50%. For `CC(C)[C@@H](C(=O)O)N1Cc2cc(-c3ccc(NS(=O)(=O)Cc4ccccc4)cc3)ccc2C1=O` [Example 301, (S)-3-Methyl-2-(1-oxo-5-(4-(phenylmethylsulfonamido)phenyl)isoindolin-2-yl)butanoic acid], the inhibition at 1 µM was in the range of 10 to 50%. In the case of `CC(C)[C@@H](C(=O)O)N1Cc2cc(-c3ccc(NS(=O)(=O)C4CCCCC4)cc3)ccc2C1=O` [Example 303, (S)-2-(5-(4-(Cyclohexanesulfonamido)phenyl)-1-oxoisoindolin-2-yl)-3-methylbutanoic acid], the inhibition at 1 µM was in the range of 10 to 50%.

For the compound `CC(C)[C@@H](C(=O)O)N1Cc2cc(-c3ccc(NC(=O)c4ccccc4)cc3)ccc2C1=O` [Example 305, (S)-2-(5-(4-Benzamidophenyl)-1-oxoisoindolin-2-yl)-3-methylbutanoic acid], the inhibition at 1 µM is 10 to 50%. For `CC(C)[C@@H](C(=O)O)N1Cc2cc(-c3ccc(NC(=O)c4ccc(F)cc4)cc3)ccc2C1=O` [Example 307, (S)-2-(5-(4-(4-Fluorobenzamido)phenyl)-1-oxoisoindolin-2-yl)-3-methylbutanoic acid], the inhibition at 1 µM lay within 10 to 50%. For the compound `CC(C)[C@@H](C(=O)O)N1Cc2cc(-c3ccc(NC(=O)c4ccc(C(F)(F)F)cc4)cc3)ccc2C1=O` [Example 309, (S)-3-Methyl-2-(1-oxo-5-(4-(4-(trifluoromethyl)benzamido)phenyl)isoindolin-2-yl)butanoic acid], the inhibition at 1 µM fell in the range of 10 to 50%. As to `COc1ccc(C(=O)Nc2ccc(-c3ccc4c(c3)CN([C@H](C(=O)O)C(C)C)C4=O)cc2)cc1` [Example 311, (S)-2-(5-(4-(4-Methoxybenzamido)phenyl)-1-oxoisoindolin-2-yl)-3-methyl butanoic acid], the inhibition at 1 µM lay in the range of 10 to 50%.

One may read the inhibition as the percentage by which the read-out fell short of the control.

Source of the values: patent publication US8748426B2, “Inhibitors of diacylglycerol acyl transferase” (Piramal Enterprises Limited, priority 2009, dated 2014).
